In patent US20220017833A1, “Methods and Compositions for Scavenging Sulfides from Hydrocarbon Fluids and Aqueous Streams” (Nexgen Oilfield Chemicals, LLC, priority 2019, published 2022):

Legend:
Format in all cases: physicochemical
[1] = Spent Solids Fouling Test; conditions: Table 5, glyoxy alkyl diaminol in water and MeOH only
Source text: In every application, the active component of the scavenger system reacts with H2S to from a reaction product. Once all the active scavenger has been so reacted, it is spent. […] Thioethers are much less water soluble than amines, so the reaction products are often insoluble. Thioether bridges also connect spent scavenger molecules to each other, thereby forming insoluble polymeric solids. These solids accumulate and foul (interfere with the function) of the vessel, line, or equipment to which the scavenger is being fed. […] If any solids or insoluble viscous liquids are observed poorly dispersed in the spent scavenger system or clinging to the sides of the vessel, the scavenging system employed in that Long Reaction Time Capacity Test fails this test. A homogeneous, single-phase solution or thin layer of readily flowable non-sticking liquid constitutes a pass.

[2] = Storage Capacity Loss Test; conditions: for BT Capacity Loss / FD Capacity Loss: 72-24 Hrs storage at room temperature; for Min to BT / Min to FD: Short Reaction Time Capacity Test, diaminol in water + 10.00 g MeOH, 20 g test
Protocol: This test compares the scavenging capacity after 24 hours of storage of the scavenger system at room temperature to that after 72 hours of storage thereof at room temperature. In one embodiment, a sample of the scavenger system is made fresh and split in two portions. The Short Reaction Time Capacity Test is run on one portion after standing 24 hours on the bench at room temperature. Then the same test is run on the other portion after standing 72 hours on the bench at room temperature. The two measured capacities are compared to see if the product degrades in storage. Importantly, some scavengers lose activity with time due to secondary reactions and re-equilibrations that degrade their active form.
Table 5 compares different alkyl substituents on glyoxy alkyl diaminols. These compounds were prepared by reacting one mole of glyoxal, as a 40% aqueous solution, with 2.1 moles of various primary amines in a sufficient amount of MeOH to keep the product from separating into an aqueous layer and a non-aqueous layer. For each amine substituent: methyl (Me), ethyl (Et), normal-propyl (n-Pr), iso-propyl (i-Pr), and iso-propanol [1-propan-2-ol] (i-PrOH), the presence or absence of alpha branching on that substituent is noted. The weight ratios of the diaminols, water, and MeOH, are listed, along with their equivalent weights (Eq. Wt.) and the total equivalents per 20 g test (Eq/test). To measure the product stability, the Storage Capacity Loss between 24 and 72 hours was determined. As described earlier, a fresh sample of the scavenger system is split in two portions. The Short Reaction Time Capacity Test is run on one portion after standing 24 hours on the bench at room temperature. Then the same test is run on the other portion after standing 72 hours on the bench at room temperature. Both the 24-hr and 72-hr capacities (Min to FD and BT) and molar capacities (Min/Eq FD and BT) are listed in the table with the percent capacity loss for each substituent calculated below it. […] The others lost 34% to 77% of their scavenging capacity in 48 hours (72-24), presumably due to secondary reactions and re-equilibrations that degraded their active form. In this system employing only methanol, all of these compositions failed both the Hot Spray Fouling Test and the Spent Water Flowability Test. Two of them, the iso-propylamine [propan-2-amine] and the iso-propanolamine [1-aminopropan-2-ol] passed the Spent Solids Fouling Test.

[3] = Hot Spray Fouling Test; conditions: Table 5; glyoxy alkyl diaminol in water and MeOH only
Source text: In many gas applications, the scavenger must by sprayed into a hot gas stream. This can create insoluble materials (“solids”) as the scavenger system evaporates and/or decomposes. These solids accumulate and foul (interfere with the function) of the vessel, line, or equipment to which the scavenger is being fed. This precludes the scavenger being used in that application. Referring now to FIG. 2, a spray test system 200 is utilized to for the Hot Spray Fouling Test. In one embodiment, an injection atomizer apparatus 22 is employed, wherein the scavenger formulation (not separately labeled) is sprayed onto a sheet 26 through an atomizing nozzle 24, like that used to introduce the scavenger into a gas line, tank, or vessel. The material is first placed in a double boiler (not shown) and brought to 180° F. The heated liquid is then placed in the injection atomizer apparatus 22 and sprayed horizontally onto an aluminum sheet 26 twelve inches away. The chemical drains gravitationally down the sheet where it is funneled into a beaker 28 for collection. If solids are observed on the sheet 26 or in the draining or collected fluid, the sample fails. If no solids are observed, it passes the test.

[4] = Solution Homogeneity Test; conditions: Table 5; glyoxy alkyl diaminol in water and MeOH only
Source text: In one aspect, as two-phase reaction products are problematic, scavenger system homogeneity is desired. The two phases could be emulsified or otherwise finely dispersed, but in practice, even fine, seemingly stable dispersions eventually separate or stratify in extended storage or critical use and are not robust enough for practical use. They are not allowed, for example, to be fed through capillaries for fear of plugging them. In this pass/fail test, a sample is held up for visual inspection in a backlit clear vial. A clear, single-phase, homogeneous solution is a pass. Anything else is a fail.

[5] = Spent Water Flowability Test; parameters: key: Pass: A homogeneous, single-phase solution or thin layer of readily flowable non-sticking liquid constitutes a pass.; Fail: Any solids or thick, sticky insoluble liquid is a fail.; PASS: A homogeneous, single-phase solution or thin layer of readily flowable non-sticking liquid constitutes a pass.; FAIL: Any solids or thick, sticky insoluble liquid is a fail; conditions: Table 5; glyoxy alkyl diaminol in water and MeOH only
Protocol: In field applications, spent scavenger is disposed of through a wastewater system. Spent scavenger might be soluble in the scavenger system but insoluble in wastewater. If it cannot be disposed of, it is not suitable for use. To ensure wastewater processing runs trouble free, spent scavenger passing the Spent Solids Fouling Test is then added to 39 times its weight in water (2.5%) and examined again for insoluble solids and viscous, sticky liquids that might foul the wastewater system. Any solids or thick, sticky insoluble liquid is a fail. A homogeneous, single-phase solution or thin layer of readily flowable non-sticking liquid constitutes a pass.

[6] = Sample Age 24 Hrs at room temperature
[7] = Sample Age 72 Hrs at room temperature

| SMILES | Spent Solids Fouling [1] | Spent Solids Fouling ([1]; listed as iso-propanolamine) | BT Capacity Loss [2] [%] | FD Capacity Loss [2] [%] | Min/Eq BT ([2]; Sample Age 24 Hrs) [Min/Eq] | Min/Eq FD ([2]; Sample Age 24 Hrs) [Min/Eq] | Min to BT [2, 6] [min] | Min to FD [2, 6] [min] | Min/Eq BT ([2]; Sample Age 72 Hrs) [Min/Eq] | Min/Eq FD ([2]; Sample Age 72 Hrs) [Min/Eq] | Min to BT [2, 7] [min] | Min to FD [2, 7] [min] | Hot Spray Fouling [3] | Solution Homogeneity [4] | Spent Water Flowability [5] |
| --- | --- | --- | --- | --- | --- | --- | --- | --- | --- | --- | --- | --- | --- | --- | --- |
| CC(O)CNC(O)C(O)NCC(C)O (stereo not drawn) | Pass | passed | 67 | 54 | 444 | 192 | 30 | 13 | 148 | 89 | 10 | 6 | Fail | Pass | Fail |
| CCNC(O)C(O)NCC (stereo not drawn) [Et] | Fail | – | 46 | 71 | 436 | 365 | 37 | 31 | 236 | 106 | 20 | 9 | Fail | Pass | Fail |
| CNC(O)C(O)NC (stereo not drawn) [Me] | Fail | – | 34 | 47 | 301 | 156 | 29 | 15 | 197 | 83 | 19 | 8 | Fail | Pass | Fail |
| CCCNC(O)C(O)NCCC (stereo not drawn) [n-Pr] | Fail | – | 55 | 77 | 501 | 409 | 38 | 31 | 224 | 92 | 17 | 7 | Fail | Pass | Fail |
